Active and inactive are the calls of the source.
Experiments:
[1] = biological target: T1, Polyadenylate-binding protein 1 (Homo sapiens, UniProt P11940); assay: PABP1 MLLE–PAM2 interaction inhibitors, dose response, miRNA deadenylation inhibitor project, biochemical, fluorescence polarization, Cy5-PAM2 peptide, secondary (AID 602260); assay type: functional; conditions: read-out: IC50_Mean
[2] = biological target: T1, Polyadenylate-binding protein 1; assay: PABP1 MLLE–PAM2 binding inhibitor potency, dose response, biochemical, fluorescence polarization, FITC-PAM2 peptide (AID 602259); assay type: functional; conditions: read-out: IC50_Mean
P388 = assay: cells; assay type: functional; conditions: Mus musculus
SN12K1 = assay: cells; assay type: functional; conditions: Homo sapiens
P388/ADR = assay: cells; assay type: functional; conditions: Mus musculus
Nonstructural protein 1 = Nonstructural protein 1 (Influenza A virus, UniProt Q194T2); assay type: functional, Influenza A virus (A/California/07/2009(H1N1))
[3] = biological target: T2, Ubiquitin-conjugating enzyme E2 N (Homo sapiens, UniProt P61088); assay type: functional;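 further: Dose-response confirmation in a TR-FRET assay detecting UBC13-driven polyubiquitin chain formation, inhibition measured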
T2 sequence (P61088 whole entry): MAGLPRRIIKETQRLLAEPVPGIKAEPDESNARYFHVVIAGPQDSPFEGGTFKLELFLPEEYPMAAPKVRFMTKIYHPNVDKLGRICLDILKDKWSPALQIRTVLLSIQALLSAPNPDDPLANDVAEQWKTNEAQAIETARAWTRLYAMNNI

[4] = HEp-2 cell cytotoxicity, dose response, cytotoxicity control for RSV inhibitor project, HTS (AID 2410); assay type: functional; conditions: human respiratory syncytial virus
[5] = C. albicans growth with fluconazole, confirmation, fluorescence, retest (AID 2467); assay type: functional, cell-based
[6] = NIH-3T3 fibroblast cytotoxicity, dose response, cytotoxicity control, cell-based, fluorescence, Alamar Blue, secondary assay (AID 2327); assay type: functional;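 further: NIH-3T3 mouse fibroblasts cultured with fluconazole at 8 µg/mL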
cells [7] = assay type: functional, cell-based
cells [8] = assay type: functional, cell-based; remark: listed apart in the source
[9] = biological target: FAD-linked sulfhydryl oxidase ALR (Homo sapiens, UniProt P55789); assay: inhibitors of human ALR sulfhydryl oxidase, dose response, biochemical, H2O2 detection, luminescence, cherry-pick (AID 493248)
[10] = growth suppression of PTEN-null colon cells, dose response, cell-based, HCT116 PTEN knockout (AID 1047); assay type: functional;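 further: HCT116 colon tumor cells with PTEN knocked out; cells exposed to compound for 60 hours before readout; potency for loss of cell viability measured by luminescence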

T1 sequence (P11940 whole entry): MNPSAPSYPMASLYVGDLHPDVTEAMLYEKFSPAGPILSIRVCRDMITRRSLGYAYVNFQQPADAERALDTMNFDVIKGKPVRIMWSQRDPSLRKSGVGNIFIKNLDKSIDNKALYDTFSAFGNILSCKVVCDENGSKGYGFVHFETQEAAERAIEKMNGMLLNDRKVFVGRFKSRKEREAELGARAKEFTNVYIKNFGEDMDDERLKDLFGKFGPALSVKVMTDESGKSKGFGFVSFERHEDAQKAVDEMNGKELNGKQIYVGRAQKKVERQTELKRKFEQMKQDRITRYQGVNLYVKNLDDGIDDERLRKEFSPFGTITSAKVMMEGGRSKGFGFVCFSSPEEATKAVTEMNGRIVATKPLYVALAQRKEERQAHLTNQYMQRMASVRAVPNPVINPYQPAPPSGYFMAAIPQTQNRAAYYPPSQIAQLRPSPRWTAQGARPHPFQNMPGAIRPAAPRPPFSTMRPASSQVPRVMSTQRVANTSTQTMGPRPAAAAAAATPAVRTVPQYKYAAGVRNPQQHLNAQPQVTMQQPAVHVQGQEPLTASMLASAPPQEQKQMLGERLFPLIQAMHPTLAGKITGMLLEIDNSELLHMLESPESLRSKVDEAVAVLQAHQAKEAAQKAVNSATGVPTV
Chain of Nonstructural protein 1 (Q194T2 whole entry): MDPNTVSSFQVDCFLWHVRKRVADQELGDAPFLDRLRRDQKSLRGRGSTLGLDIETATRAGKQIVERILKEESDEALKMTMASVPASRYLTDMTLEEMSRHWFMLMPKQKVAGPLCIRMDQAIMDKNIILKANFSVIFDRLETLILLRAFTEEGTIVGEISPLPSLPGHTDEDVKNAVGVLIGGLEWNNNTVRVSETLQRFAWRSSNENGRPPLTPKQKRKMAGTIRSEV
Chain of FAD-linked sulfhydryl oxidase ALR (P55789 whole entry): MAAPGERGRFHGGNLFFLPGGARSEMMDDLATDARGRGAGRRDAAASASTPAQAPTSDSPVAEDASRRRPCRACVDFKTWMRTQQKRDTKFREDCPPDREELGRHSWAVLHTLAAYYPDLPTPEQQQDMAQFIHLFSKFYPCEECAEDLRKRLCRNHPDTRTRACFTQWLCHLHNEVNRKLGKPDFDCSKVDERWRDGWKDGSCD

SMILES: COc1nnc(-c2ccccc2)s1
- IC50 [1]: > 66 µM (inactive)
- IC50 [2]: > 66 µM (inactive)

SMILES: COc1ccc2[nH]cc(/C=C(/C)c3ccncc3)c2c1
- GI50 (P388): 3.07 µM (inactive)
- GI50 (SN12K1): 16 µM (inactive)
- GI50 (P388/ADR): 2.99 µM (inactive)

SMILES: CC(=O)Nc1cccc(NC(=O)CSc2nn3c(=O)c(C)nnc3s2)c1
- IC50 (Nonstructural protein 1): 9.96 µM (active)

SMILES: O=C(NCCCN1CCOCC1)c1ccc2c(=O)n(Cc3cccc(Br)c3)c(=S)[nH]c2c1
- IC50 [3]: > 20 µM (inactive)

SMILES: Cc1cc(C)cc(NC2=C(N)C(=O)c3ccccc3C2=O)c1
- IC50 (Nonstructural protein 1): 37.3 µM (active)

SMILES: Cc1cc(Cl)n2nc(C)c(-c3ccc(Cl)cc3)c2n1
- CC50 [4]: 27.6 µM (active)
- EC50 [5]: > 38 µM (not active)
- EC50 [6]: > 150 µM (inactive)

SMILES: CCC(C)N(C(=O)CSc1ccc(NC(C)=O)cc1)C1CCS(=O)(=O)C1 (configuration not stated)
- IC50 [1]: > 66 µM (inactive)
- IC50 [2]: > 66 µM (inactive)

SMILES: CCOC(=O)c1cccc(NS(=O)(=O)c2c(C(=O)N3CCCCCC3)c(C)n(C)c2C)c1
- IC50 [3]: > 20 µM (inactive)

SMILES: COC1/C=C\C=C(/C)C(=O)NC2=CC(=O)C=C(C2=O)C(OC)C(C)CC(OC)C(OC)C(C)/C=C(/C)C1OC(N)=O (configuration not stated)
- GI50 (P388): 0.0166 µM (active)
- GI50 (SN12K1): 1.69 µM (inactive)
- GI50 (P388/ADR): 1.29 µM (inactive)

SMILES: CSCC[C@@H]1C(=O)N(C)[C@H](C(C)(C)C)N1C(=O)c1ccccc1
- GI50 (P388): > 100 µM (inactive)
- GI50 (SN12K1): > 100 µM (inactive)

SMILES: Cc1ccc(S(=O)(=O)CCc2nnc(NC(=O)c3ccccn3)s2)cc1
- IC50 (Nonstructural protein 1): 10.2 µM (active)

SMILES: NS(=O)(=O)c1ccc(CNC(=O)c2csc3c2CCCC3)cc1
- EC50 (cells [7]): > 350 µM (not active)
- EC50 (cells [8]): > 350 µM (not active)

SMILES: CCOC(=O)C(CC(C)C)NC(=O)C(Cc1ccc(N(CCCl)CCCl)cc1)NC(C)=O (configuration not stated)
- GI50 (P388): 1.93 µM (inactive)
- GI50 (SN12K1): 2.2 µM (inactive)
- GI50 (P388/ADR): 1.91 µM (inactive)

SMILES: CCCSCC(P(=O)(O)O)P(=O)(O)O.NC1CCCCC1
- GI50 (P388): > 100 µM (inactive)
- GI50 (SN12K1): > 100 µM (inactive)
- GI50 (P388/ADR): > 100 µM (inactive)

SMILES: O=C(CSc1nc[nH]n1)NCCc1ccc(Cl)cc1Cl
- EC50 (cells [7]): 149 µM (active)
- EC50 (cells [8]): > 350 µM (not active)

SMILES: Cc1ccc(NC(=O)NNC(=O)c2cc3ccccc3cc2O)cc1C
- EC50 [5]: > 38 µM (not active)
- EC50 [6]: > 160 µM (inactive)

SMILES: CC1CCc2sc(-c3nnc(S)o3)cc2C1 (configuration not stated)
- AC50 [9]: 1.2 µM (active)

SMILES: O=C(NNC(=O)C1CCN(S(=O)(=O)c2ccc(Cl)cc2)CC1)c1ccc(S(=O)(=O)N2CCCCC2)cc1
- IC50 [3]: > 20 µM (inactive)

SMILES: CN(C)c1ccc(/C=N/NC(=O)c2ccn(C)n2)cc1
- AC50 [9]: 25.6 µM (active)

SMILES: CCOc1ccccc1-c1nc(C(N)=O)c2nc(O)n(-c3ccc(F)cc3)c2n1
- IC50 [3]: > 20 µM (inactive)

SMILES: Cc1ccc(OC(=O)COc2ccccc2C)c(-n2nc3ccccc3n2)c1
- IC50 [1]: > 66 µM (inactive)
- IC50 [2]: > 66 µM (inactive)

SMILES: O=C(NCCCc1ccccc1)Nc1cccc(Cl)c1
- EC50 [10]: 43.5 µM (active)
- EC50 [5]: > 38 µM (not active)
- EC50 [6]: > 150 µM (inactive)

SMILES: COc1cc(C(=O)Nc2nc3ccc(S(C)(=O)=O)cc3s2)cc(OC)c1C
- IC50 [3]: > 20 µM (inactive)
